These results are taken from article PMC7392887, “Structural signatures in EPR3 define a unique class of plant carbohydrate receptors” (Nature Communications, 2020).

In one experiment the target is T1, EPR3 (Lotus japonicus, UniProt D3KU53).
T1 construct: gene LYS3; ectodomain (M1, M2, LysM3, stem), residues 33-232; N-terminal gp67 secretion signal, C-terminal 6xHis tag; secreted from Sf9 insect cells (baculovirus); glycosylated or PNGase F-treated; monomer
T1 sequence (D3KU53 33-232): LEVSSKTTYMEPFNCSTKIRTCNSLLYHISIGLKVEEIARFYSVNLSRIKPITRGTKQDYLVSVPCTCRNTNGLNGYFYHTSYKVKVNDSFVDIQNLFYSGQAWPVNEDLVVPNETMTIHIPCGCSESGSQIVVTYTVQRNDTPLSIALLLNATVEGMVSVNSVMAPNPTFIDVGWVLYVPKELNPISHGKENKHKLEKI
Description: microscale thermophoresis. The following applies: labelled EPR3 (Blue NHS, 100 nM); 50 mM K2PO4 pH 7.8, 500 mM NaCl, 0.05% Tween-20; 25 °C; n = 3. It is filed as binding. In general terms: Microscale thermophoresis detects binding through changes in fluorescence in a small temperature gradient.

Experiment [1] deals with T2, Lotus japonicus exopolysaccharide receptor 3 (EPR3) ectodomain (Lotus japonicus ecotype Gifu, N-linked oligosaccharides (glycosylated)).
T2 construct: EPR3 (exopolysaccharide receptor 3), Lotus japonicus ecotype Gifu, ectodomain, residues 33-232; Codon-optimised for insect cells, vector pOET2; also called Lotus EPR3; glycosylated EPR3; source: Sf9 (baculovirus), secreted into the medium, purified (HisTrap excel, HisTrap HP, Superdex 75)
T2 chain: T1 sequence (D3KU53 33-232)
The experiment can be described thus: SEC; analytic Superdex 75 Increase 3.2/300 column; mobility shift of the complex. The conditions noted are these: both partners purified. For orientation: Size exclusion chromatography separates by hydrodynamic size, large species first.

On to `O=C(O)[C@H]1O[C@@H](O[C@H]2[C@H](O)[C@@H](O)[C@@H](O[C@H]3[C@H](O)[C@@H](O)[C@H](OC[C@H]4O[C@@H](OC[C@H]5O[C@@H](O[C@H]6[C@H](O)[C@@H](O)[C@H](O[C@H]7[C@H](O)[C@@H](O)[C@H](O[C@H]8[C@@H](O)[C@@H](CO)OC(O)[C@@H]8O)O[C@@H]7CO)O[C@@H]6CO)[C@H](O)[C@@H](O)[C@@H]5O)[C@H](O)[C@@H](O)[C@@H]4O)O[C@@H]3CO)O[C@@H]2C(=O)O)[C@H](O)[C@@H]1O` (some centres unmarked) [deOAc-EPS], for which the Kd (commonly the equilibrium constant for the complex coming apart) at EPR3 came out at 31.3 ± 11.7 µM.

B1: Nb186 (VHH)
VHH: QVQLVESGGGLVQPGGSLRLSCAASGSIFSIDYMGWYRQAPGKERELVAIKTSGGTTHYADSVKGRFTISRDNAKNTVYLQMNSLKPDDTAVYYCNARVYFGDRDYWGQGTQVTVSS
notes: llama (Lama glama) nanobody selected by phage display against EPR3; Cloned into pET22b(+) for bacterial expression; also called nanobody Nb186; source: E. coli LOBSTR, purified (Ni Sepharose 6 FF, Superdex 75)
B1: the binding result in experiment [1] was “binds”.
